Values quoted from earlier work in US10874130B2, “Steviol glycoside solutions” (PureCircle USA Inc., priority 2015, dated 2020).

Settings: heat and pH

Structure (SMILES): C=C1C[C@@]23CC[C@H]4[C@@](C)(CCC[C@@]4(C)C(=O)O[C@@H]4O[C@H](CO)[C@@H](O)[C@H](O)[C@H]4O)[C@@H]2CC[C@]1(O[C@@H]1O[C@H](CO)[C@@H](O)[C@H](O[C@@H]2O[C@H](CO)[C@@H](O)[C@H](O)[C@H]2O)[C@H]1O[C@@H]1O[C@H](CO)[C@@H](O)[C@H](O)[C@H]1O)C3 [rebaudioside A]
- Stability in carbonated beverages: heat and pH stability

Structure (SMILES): C=C1C[C@@]23CC[C@H]4[C@@](C)(CCC[C@@]4(C)C(=O)O[C@@H]4O[C@H](CO)[C@@H](O)[C@H](O)[C@H]4O)[C@@H]2CC[C@]1(O[C@@H]1O[C@H](CO)[C@@H](O)[C@H](O)[C@H]1O[C@@H]1O[C@H](CO)[C@@H](O)[C@H](O)[C@H]1O)C3 [stevioside]
- Stability in carbonated beverages: heat and pH stability
